Results from patent US20170202792A1, “METHOD FOR TREATING TAU-ASSOCIATED DISEASES” (NATIONAL TAIWAN NORMAL UNIVERSITY, priority 2016, published 2017).

Key:
HSPB1 = experiment: Western blot of HSPB1 expression in tauRD-DsRed SH-SY5Y cells; format: cell-based, human; settings: untreated = 100%
Excerpt: (§1) Furthermore, chaperones are molecules essential for proper protein folding which play a key role in protein-folding disorders in central nervous system. […] Moreover, the upregulation of endoplasmic reticulum chaperones such as glucose-regulated protein, 78 kDa (GRP78) is a cellular protective response against AD (Hoshino et al., 2007. Endoplasmic reticulum chaperones inhibit the production of amyloid-(3 peptides. Biochem. J. 402, 581-589). Accordingly, the GRP78 and HSPB1 expression in tauRD-DsRed SH-SYSY cells treated by Congo red and compound (I) with or without doxycycline were analyzed.
(§2) Western blotting analysis was applied for examining the expressions of HSPB1 and GRP78, the method was as follows: total proteins were extracted using RIPA buffer, which comprised 50 mM Tris-HCl, 150 mM NaCl, 1 mM EDTA, 1 mM EGTA, 0.1% SDS, 0.5% sodium deoxycholate, 1% Triton X-100, and a protease inhibitor cocktail (Calbiochem). […] Next, immunoreactive bands were detected using horseradish peroxidase-conjugated goat anti-mouse, goat anti-rabbit, or donkey anti-goat IgG antibodies (1:5000; GeneTex) and chemiluminescent substrate (Millipore).

GRP78 = experiment: Western blot of GRP78 expression in tauRD-DsRed SH-SY5Y cells; format: cell-based, human; settings: untreated = 100%
Excerpt: as §1, §2

[1] = test system: transgenic flies overexpressing tau protein driven by Eq-gal4 (Eq>tau); experiment: In vivo tau toxicity, notal bristle number of flies; design: species or system Drosophila; settings: 25 μM and 50 μM of compound (I) vs DMSO
Description: 10 Eq-ga14 flies were treated with DMSO as the control group, and transgenic flies overexpressing tau protein driven by Eq-ga14 (Eq>tau) were treated with DMSO, 25 μM of compound (I), and 50 μM of compound (I) respectively in each group of 10 flies. The number of notal bristle of the flies was then calculated.

[2] = test system: mouse hippocampal primary culture cells; experiment: Mouse hippocampal primary culture under tau toxicity (WT and GFX); format: cell-based; settings: 10 nM WT and GFX; 0.1, 0.25, 0.5 μM compound (I), 12 hours
Description: The mouse hippocampal primary culture cells were isolated from the hippocampi of C57BL/6J mouse embryos at days 16-18. On days in vitro (DIV) 4 and 7, 2 μM of cytosine arabinoside was added to the culture medium for reducing the glial cell populations. On DIV 9, the cells were treated with 10 nM of Wortmannin (WT) and GF109203X (GFX) to induce tau hyperphosphorylation for mimicking an AD condition. 0, 0.1, 0.25, and 0.5 μM of compound (I) were then added to the cells at DIV 9. Cells were harvested 12 hours later for immunocytochemical staining with NeuN (for neuron) and MAP2 (for neurite morphology) antibodies.

[3] = Body weight monitoring in STZ 3×Tg-AD mice; format: in vivo, mouse; settings: 0.25 mg/kg i.p. daily 28 days; NBG vs HBG groups treated with compound (I)
Description: (§3) Hyperglycemia was induced by streptozotocin (STZ) to accelerated Alzheimer's disease progression of 6-month-old male transgenic 3×Tg−AD mice. Half of the 3×Tg−AD mice (n=30) received STZ (100 mg/kg) intraperitoneal injection at days 1, 2, 8, and 9 respectively as the high blood glucose group (HBG); another half of the 3×Tg-AD mice (n=30) received sodium citrate (0.1 M) at the same time points as the normal blood glucose group (NBG). Then, HBG and NBG were divided into two groups respectively to give four groups such as NBG-compound (I), HBG-compound (I), NBG-DMSO, and HBG-DMSO with n=15 in each group; wherein 0.25 mg/kg of compound (I) (in 30 μL) were intraperitoneal injected into those mice of NBG-compound (I) and HBG-compound (I) groups daily since day 14 for 28 days, and 30 μL of DMSO solvent were intraperitoneal injected into those mice of NBG-DMSO and HBG-DMSO groups daily since day 14 for 28 days. Both mouse body weight (BW) and blood glucose (BG) were monitored every week.

[4] = test system: GFAP (astrocytes) and Iba1 (microglia); experiment: Immunohistochemical staining of GFAP and Iba1 (neuro-inflammation in hippocampus); format: in vivo, mouse; settings: 0.25 mg/kg i.p. daily 28 days
Description: as §3
After the brain tissue of the mice were fixed and dehydrated, the tissue was cryosectioned (30 μm). The cryosections were then washed with phosphate buffered saline (PBS) three times. After the optimal cutting temperature compound (OCT) was removed, 3% H2O2was used to remove the endogenous peroxidase, and the cryosection was blocked by the blocking solution for 1 hour to reduce non-specific antigen reactions. The primary antibodies GFAP (astrocytes) and Iba1 (microglia) were added and reacted for 12 hours, the secondary antibody (1:200 dilution in blocking solution, Vecter) was added and reacted for 1 hour, and then, the avidin-biotin complex was added and reacted for 1 hour. Finally, DAB-kit was used for coloring. All the stained sections were attached to the slides, dried, dehydrated, and mounted for imaging and quantification (Image Pro Plus) to evaluate the neuro-inflammation in mouse hippocampus. The quantification results were shown in Table 2, wherein ↑↑↑, ↓↓↓:p<0.001.

IL-6 and TNF-α = experiment: Content analysis of IL-6 and TNF-α in serum (ELISA); format: in vivo, mouse; settings: both normal and high blood glucose groups; 0.25 mg/kg i.p. daily
Description: Hyperglycemia was induced by streptozotocin (STZ) to accelerated Alzheimer's disease progression of 6-month-old male transgenic 3×Tg−AD mice. Half of the 3×Tg−AD mice (n=30) received STZ (100 mg/kg) intraperitoneal injection at days 1, 2, 8, and 9 respectively as the high blood glucose group (HBG); another half of the 3×Tg-AD mice (n=30) received sodium citrate (0.1 M) at the same time points as the normal blood glucose group (NBG). […] Both mouse body weight (BW) and blood glucose (BG) were monitored every week.
Additionally, the peripheral inflammatory cytokine in four groups of mice were evaluated. The collected blood was centrifuged (2000×g) for 20 minutes at 4° C., and the supernatant was analyzed using mouse TNF-α ELISA kit and IL-6 ELISA kit (R&D system). OD450 nm absorbance was detected by ELISA reader, and the concentration of IL-6 and of TNF-α were obtained by interpolating the standard curve and shown in FIG. 11, wherein *p<0.05. […]

## CCCCC/C=C\C/C=C\C/C=C\C/C=C\CCCC(=O)Nc1ccc(O)cc1 [compound (I), (5Z, 8Z, 11Z,14Z)-N-(4-Hydroxyphenyl)icosa-5 ,8 , 11,14-tetraen amide]
HSPB1
  expression of HSPB1 relative to untreated cells: 174%
GRP78
  expression of GRP78 relative to untreated cells: 189%
[1]
  number of notal bristle: effectively reduced the notal bristle loss
[2]
  neuronal survival and neurite length: alleviate the phenomena of low neuronal survival rate and short neurite length
[3]
  body weight (BW): no significant difference in BW
[4]; HBG 3×Tg-AD mice
  GFAP staining quantification: 15.63 ± 2.05↓↓↓
  Iba1 staining quantification: 29.43 ± 0.78↓↓↓
[4]; NBG 3×Tg-AD mice
  GFAP staining quantification: 3.33 ± 1.02
  Iba1 staining quantification: 34.25 ± 2.19
IL-6 and TNF-α
  IL-6 level in serum: down-regulated
  TNF-α level in serum: down-regulated
